Literature values in patent US20100055173A1, “RELEASE OF STATINS IN THE INTESTINE” (priority 2006, published 2010).
Like-named read-outs stand apart in the source and are kept apart here.

Key:
HMG-CoA reductase = biological target: T1, HMG-CoA reductase (Homo sapiens, UniProt P04035); settings: considering the beta-hydroxy acid form as the drug
T1 sequence (P04035 1-888): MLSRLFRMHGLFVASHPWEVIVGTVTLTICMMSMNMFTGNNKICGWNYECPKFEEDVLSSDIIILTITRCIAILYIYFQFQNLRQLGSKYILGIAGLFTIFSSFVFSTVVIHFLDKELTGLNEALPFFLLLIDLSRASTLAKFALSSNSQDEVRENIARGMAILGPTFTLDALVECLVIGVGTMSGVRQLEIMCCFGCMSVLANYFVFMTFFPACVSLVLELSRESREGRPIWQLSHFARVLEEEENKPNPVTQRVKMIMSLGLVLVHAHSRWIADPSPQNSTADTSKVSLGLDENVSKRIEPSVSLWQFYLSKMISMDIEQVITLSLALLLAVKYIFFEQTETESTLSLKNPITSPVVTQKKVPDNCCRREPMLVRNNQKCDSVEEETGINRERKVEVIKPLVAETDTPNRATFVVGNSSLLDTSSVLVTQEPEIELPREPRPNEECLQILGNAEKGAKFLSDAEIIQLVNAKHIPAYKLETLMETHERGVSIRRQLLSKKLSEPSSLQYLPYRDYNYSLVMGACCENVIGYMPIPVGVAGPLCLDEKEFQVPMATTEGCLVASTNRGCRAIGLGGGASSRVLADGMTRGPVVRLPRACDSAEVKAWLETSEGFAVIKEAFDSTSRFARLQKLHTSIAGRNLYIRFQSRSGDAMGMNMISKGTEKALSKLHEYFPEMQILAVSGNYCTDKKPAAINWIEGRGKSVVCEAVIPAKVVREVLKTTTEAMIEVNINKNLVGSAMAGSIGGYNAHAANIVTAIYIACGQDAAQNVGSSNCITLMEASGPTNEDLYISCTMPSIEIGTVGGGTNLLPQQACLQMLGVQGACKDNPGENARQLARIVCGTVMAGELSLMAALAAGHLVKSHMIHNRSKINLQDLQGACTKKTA

plasma proteins = settings: primarily to albumin

SMILES: CCC(C)(C)C(=O)OC1CC(C)(O)C=C2C=CC(C)C(CCC3CC(O)CC(=O)O3)C21 (stereo not drawn) [6-beta-hydroxy simvastatin]
- HMG-CoA reductase activity retained (HMG-CoA reductase): ~50%

SMILES: CCC(C)(C)C(=O)O[C@H]1C[C@@H](CO)C=C2C=C[C@H](C)[C@H](CC[C@@H]3C[C@@H](O)CC(=O)O3)[C@H]21 [6-beta-hydroxymethyl, 6-beta-hydroxymethyl simvastatin]
- HMG-CoA reductase activity retained (HMG-CoA reductase): approximately 40%

SMILES: CCC(C)(C)C(=O)O[C@H]1C[C@@H](C)C=C2C=C[C@H](C)[C@H](CC[C@@H](O)C[C@@H](O)CC(=O)O)[C@H]21 [open hydroxyl acid form, β-hydroxyacid-simvastatin]
- bound to plasma proteins (plasma proteins): 94.5%

SMILES: CCC(C)(C)C(=O)O[C@H]1C[C@@H](C)C=C2C=C[C@H](C)[C@H](CC[C@@H]3C[C@@H](O)CC(=O)O3)[C@H]21 [simvastatin]
- bound to plasma proteins (plasma proteins): More than 98%
- bound to plasma proteins (plasma proteins; listed as Simvastatin): more than 95%
